Results published in paper PMC4970445, “Multiple active site residues are important for photochemical efficiency in the light-activated enzyme protochlorophyllide oxidoreductase (POR)^” (Journal of Photochemistry and Photobiology. B, Biology, 2016).

Experiments:
Test in all cases: FRET from protein Trp to bound NADPH
Assay type in all cases: binding
[1] = target: T1, protochlorophyllide oxidoreductase (POR) (Thermosynechococcus vestitus, UniProt Q8DLC1, T230F)
T1 construct: recombinant, overexpressed in Escherichia coli, purified as in earlier work
T1 sequence (Q8DLC1 entry or part of it T230F): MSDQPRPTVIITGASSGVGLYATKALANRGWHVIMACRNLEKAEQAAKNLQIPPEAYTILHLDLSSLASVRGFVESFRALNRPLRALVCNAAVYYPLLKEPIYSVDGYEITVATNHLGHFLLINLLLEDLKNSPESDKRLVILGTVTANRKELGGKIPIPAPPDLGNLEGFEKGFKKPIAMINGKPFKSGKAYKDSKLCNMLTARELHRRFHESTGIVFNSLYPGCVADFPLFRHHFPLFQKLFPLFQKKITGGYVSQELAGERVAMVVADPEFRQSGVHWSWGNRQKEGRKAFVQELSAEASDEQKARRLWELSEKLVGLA
Description: (§1) FRET from protein Trp to bound NADPH on protochlorophyllide oxidoreductase (POR)

[2] = target: T2, protochlorophyllide oxidoreductase (POR) (Thermosynechococcus vestitus, UniProt Q8DLC1, G19A)
T2 construct: recombinant, overexpressed in Escherichia coli, purified as in earlier work
T2 sequence (Q8DLC1 entry or part of it G19A): as the sequence (Q8DLC1 entry or part of it T230F) above, with G19A, F230T counted along it
Description: as §1

[3] = target: T3, protochlorophyllide oxidoreductase (POR) (Thermosynechococcus vestitus, UniProt Q8DLC1, R38V)
T3 construct: recombinant, overexpressed in Escherichia coli, purified as in earlier work
T3 sequence (Q8DLC1 entry or part of it R38V): as the sequence (Q8DLC1 entry or part of it T230F) above, with R38V, F230T counted along it
Description: as §1

[4] = target: T4, protochlorophyllide oxidoreductase (POR) (Thermosynechococcus vestitus, UniProt Q8DLC1)
T4 construct: recombinant, overexpressed in Escherichia coli, purified as in earlier work
T4 sequence (Q8DLC1 1-322): as the sequence (Q8DLC1 entry or part of it T230F) above, with F230T counted along it
Description: as §1

[5] = target: T5, protochlorophyllide oxidoreductase (POR) (Thermosynechococcus vestitus, UniProt Q8DLC1, S16C)
T5 construct: recombinant, overexpressed in Escherichia coli, purified as in earlier work
T5 sequence (Q8DLC1 entry or part of it S16C): as the sequence (Q8DLC1 entry or part of it T230F) above, with S16C, F230T counted along it
Description: as §1

[6] = target: T6, protochlorophyllide oxidoreductase (POR) (Thermosynechococcus vestitus, UniProt Q8DLC1, K42A)
T6 construct: recombinant, overexpressed in Escherichia coli, purified as in earlier work
T6 sequence (Q8DLC1 entry or part of it K42A): as the sequence (Q8DLC1 entry or part of it T230F) above, with K42A, F230T counted along it
Description: as §1

For `NC(=O)C1=CN([C@@H]2O[C@H](COP(=O)(O)OP(=O)(O)OC[C@H]3O[C@@H](n4cnc5c(N)ncnc54)[C@H](OP(=O)(O)O)[C@@H]3O)[C@@H](O)[C@H]2O)C=CC1` [NADPH], the Kd [1] was 436 ± 87 nM, the Kd [2] was 182 ± 31 nM and the Kd [3] was 411 ± 76 nM. For the same molecule, the Kd [4] was 21 ± 1 nM, the Kd [5] was 325 ± 90 nM and the Kd [6] was 230 ± 81 nM.
